# Measured values: EP3352763B1 (priority 2015, dated 2017)
# Tested on: A/Mississippi/3/2001/Variante, H1N1
# Format: cell-based, Influenzaviren
structure (smiles),measurement,value
"O=C(/C=C/c1ccc(O)cc1)OC[C@H]1O[C@@H](Oc2c(-c3ccc(O)cc3)oc3cc(O)cc(O)c3c2=O)[C@H](O)[C@@H](O)[C@@H]1O [Tilirosid, Kaempferol-3-(6""-trans-p-coumaroyl)glucosid]",Selektivitätsindex (S.I.),1.047
same,antivirale Wirkung,antiviral wirkt
